From patent publication US6908899B2, “Pro-inflammatory fibrinopeptide” (U.S. Dept. of Veterans Affairs, priority 2001, dated 2005)

Key:
[1] = system: synovial fibroblast lines; assay: V-CAM-1 expression on synovial lines; assay type: cell-based, human; settings: in response to the peptide
[2] = system: human lung fibroblastic cells; assay: Response of lung fibroblastic cells to the fibrinopeptide; assay type: cell-based
Excerpt: The peptide of the invention is believed to play a role in inflammatory lung diseases in which fibrin deposition is also known to occur. My research has proven that human lung fibroblastic cells are also responsive to the fibrinopeptide, and under its influence, will express selective pro-inflammatory molecules on the cell surface and will secrete pro-inflammatory mediators, such as cytokines and chemical attractants for immune cells.

[3] = system: OA derived synovial cells; assay: In vitro T cell adhesion assay; assay type: cell-based, human; settings: OA line 15, ± SD, triplicate wells

Gly-Pro-Arg-Pro [GPRP]
Lines tested that upregulated V-CAM-1 expression [1]: about 50 % of the lines tested | Responsiveness of lung fibroblastic cells (surface pro-inflammatory molecules, secreted mediators) [2]: responsive | Adherent T cell numbers ([3]; GPRP 0.1 mg/ml overnight): 92 ± 27 | Adherent T cell numbers ([3]; GPRP 1 mg/ml overnight): 113 ± 44
